Measurements reported in US4241083A, “Germicidal composition for agriculture and horticulture” (priority 1978, dated 1980).

Legend:
[1] = test system: Colletotrichum lagenarium; assay: Prevention effect for anthracnose on cucumber (Ex. 18); format: in vivo; conditions: for Germicidal damage to seedlings: cucumber seedlings; for Number of disease spots per leaf / Percentage of leaves attacked with the disease / Prevention value per leaf (Perfect prevention = 100): sixth day after spraying
Text: The prevention effect for anthracnose on cucumber was investigated in the following manner.
An aqueous solution of ethyl 2-(2-hydroxyethylamino)-3-benzoylpropionate hydrochloride (2500 ppm and 5000 ppm) was sprayed on cucumber seedlings (bifoliate age) of Tokiwa Hikari No. 3 (p type) variety which were planted in sections of two rows of three.
After air-drying the seedlings, a spore suspention of Colletotrichum lagenarium was inoculated on the test seedlings by means of a glass sprayer. The inoculated seedlings were kept at 20°-22° C. for four days in the inoculation box, and then allowed to stand in a glass chamber.
The number of disease spots of anthracnose that appeared on the cucumber leaves was measured on the sixth day after spraying the germicidal aqueous solution. The number of spots can be used to calculate a prevention value. Using the number of spots that appeared per control leaf as a reference, the relative number per hundred of spots prevented by the experimental germicide is the prevention value. Thus a perfectly preventive germicide has a prevention value of 100 and the control has a prevention value of 0.

Phomopsis vexans = assay: Growth of germs on potato dextrose-agar medium containing the compound (Ex. 11); format: cell-based; parameters: key: +++: extremely much growth; ++: much growth; +: a little growth; -: no growth; conditions: two weeks, 25° C.
Procedure: (§1) Ethyl 2-(2-hydroxyethylamino)-3-benzoylpropionate hydrochloride was added to potato dextrose-agar culture medium in the concentration indicated in Table 1 and the suspensions of various kinds of germs were dropped on the culture medium. After incubation of the germs for two weeks in thermostat (25° C.), the growing conditions were observed.
(§2) In Table 1, +++, ++, + and - represent "extremely much growth", "much growth", "a little growth" and "no growth" respectively.

Cladosporium cucumerium = assay: Growth of germs on potato dextrose-agar medium containing the compound (Ex. 4); format: cell-based; parameters: key: +++: extremely much growth; ++: much growth; +: a little growth; -: no growth; conditions: two weeks, 25° C.
Procedure: as §1, §2

Cercospora kikuchii = assay: Growth of germs on potato dextrose-agar medium containing the compound (Ex. 15); format: cell-based; parameters: key: +++: extremely much growth; ++: much growth; +: a little growth; -: no growth; conditions: two weeks, 25° C.
Procedure: as §1, §2

Botrytis alli = assay: Growth of germs on potato dextrose-agar medium containing the compound (Ex. 3); format: cell-based; parameters: key: +++: extremely much growth; ++: much growth; +: a little growth; -: no growth; conditions: two weeks, 25° C.
Procedure: as §1, §2

Sclerotinia sclerotiorum = assay: Growth of germs on potato dextrose-agar medium containing the compound (Ex. 12); format: cell-based; parameters: key: +++: extremely much growth; ++: much growth; +: a little growth; -: no growth; conditions: two weeks, 25° C.
Procedure: as §1, §2

[2] = test system: Fusarium oxysporum f. lycopersici; assay: Growth of germs on potato dextrose-agar medium containing the compound (Ex. 8); format: cell-based; parameters: key: +++: extremely much growth; ++: much growth; +: a little growth; -: no growth; conditions: two weeks, 25° C.
Procedure: as §1, §2

Pyrenochaeta sp. = assay: Growth of germs on potato dextrose-agar medium containing the compound (Ex. 14); format: cell-based; parameters: key: +++: extremely much growth; ++: much growth; +: a little growth; -: no growth; conditions: two weeks, 25° C.
Procedure: as §1, §2

Stemphylium lycopersici = assay: Growth of germs on potato dextrose-agar medium containing the compound (Ex. 7); format: cell-based; parameters: key: +++: extremely much growth; ++: much growth; +: a little growth; -: no growth; conditions: two weeks, 25° C.
Procedure: as §1, §2

Structure (SMILES): CCOC(=O)C(CC(=O)c1ccccc1)NCCO.Cl (stereo not drawn) [Ethyl 2-(2-hydroxyethylamino)-3-benzoylpropionate hydrochloride]
- Germicidal damage to seedlings ([1]; 2500 ppm): none
- Number of disease spots per leaf ([1]; 2500 ppm): 2.83
- Percentage of leaves attacked with the disease ([1]; 2500 ppm): 83.3%
- Prevention value per leaf (Perfect prevention = 100) ([1]; 2500 ppm): 88.0
- Germicidal damage to seedlings ([1]; 5000 ppm): none
- Number of disease spots per leaf ([1]; 5000 ppm): 2.92
- Percentage of leaves attacked with the disease ([1]; 5000 ppm): 91.7%
- Prevention value per leaf (Perfect prevention = 100) ([1]; 5000 ppm): 87.6
- growing conditions (growth of germ) (Phomopsis vexans; 10 ppm): +
- growing conditions (growth of germ) (Phomopsis vexans; 20 ppm): -
- growing conditions (growth of germ) (Phomopsis vexans; 50 ppm): -
- growing conditions (growth of germ) (Phomopsis vexans; 100 ppm): -
- growing conditions (growth of germ) (Phomopsis vexans; 200 ppm): -
- growing conditions (growth of germ) (Cladosporium cucumerium; 10 ppm): +++
- growing conditions (growth of germ) (Cladosporium cucumerium; 20 ppm): +++
- growing conditions (growth of germ) (Cladosporium cucumerium; 50 ppm): -
- growing conditions (growth of germ) (Cladosporium cucumerium; 100 ppm): -
- growing conditions (growth of germ) (Cladosporium cucumerium; 200 ppm): -
- growing conditions (growth of germ) (Cercospora kikuchii; 10 ppm): +
- growing conditions (growth of germ) (Cercospora kikuchii; 20 ppm): -
- growing conditions (growth of germ) (Cercospora kikuchii; 50 ppm): -
- growing conditions (growth of germ) (Cercospora kikuchii; 100 ppm): -
- growing conditions (growth of germ) (Cercospora kikuchii; 200 ppm): -
- growing conditions (growth of germ) (Botrytis alli; 10 ppm): +
- growing conditions (growth of germ) (Botrytis alli; 20 ppm): -
- growing conditions (growth of germ) (Botrytis alli; 50 ppm): -
- growing conditions (growth of germ) (Botrytis alli; 100 ppm): -
- growing conditions (growth of germ) (Botrytis alli; 200 ppm): -
- growing conditions (growth of germ) (Sclerotinia sclerotiorum; 10 ppm): +++
- growing conditions (growth of germ) (Sclerotinia sclerotiorum; 20 ppm): +++
- growing conditions (growth of germ) (Sclerotinia sclerotiorum; 50 ppm): -
- growing conditions (growth of germ) (Sclerotinia sclerotiorum; 100 ppm): -
- growing conditions (growth of germ) (Sclerotinia sclerotiorum; 200 ppm): -
- growing conditions (growth of germ) ([2]; 10 ppm): +++
- growing conditions (growth of germ) ([2]; 20 ppm): ++
- growing conditions (growth of germ) ([2]; 50 ppm): -
- growing conditions (growth of germ) ([2]; 100 ppm): -
- growing conditions (growth of germ) ([2]; 200 ppm): -
- growing conditions (growth of germ) (Pyrenochaeta sp.; 10 ppm): ++
- growing conditions (growth of germ) (Pyrenochaeta sp.; 20 ppm): ++
- growing conditions (growth of germ) (Pyrenochaeta sp.; 50 ppm): -
- growing conditions (growth of germ) (Pyrenochaeta sp.; 100 ppm): -
- growing conditions (growth of germ) (Pyrenochaeta sp.; 200 ppm): -
- growing conditions (growth of germ) (Stemphylium lycopersici; 10 ppm): +
- growing conditions (growth of germ) (Stemphylium lycopersici; 20 ppm): +
- growing conditions (growth of germ) (Stemphylium lycopersici; 50 ppm): -
- growing conditions (growth of germ) (Stemphylium lycopersici; 100 ppm): -
- growing conditions (growth of germ) (Stemphylium lycopersici; 200 ppm): -
